From ChEMBL document CHEMBL1140320, “Second generation transition state analogue inhibitors of human 5'-methylthioadenosine phosphorylase” (J Med Chem, 2005) come the findings set out here.

Series [1] concerns the target T1, S-methyl-5'-thioadenosine phosphorylase (Homo sapiens, UniProt Q13126).
T1 sequence (Q13126 whole entry): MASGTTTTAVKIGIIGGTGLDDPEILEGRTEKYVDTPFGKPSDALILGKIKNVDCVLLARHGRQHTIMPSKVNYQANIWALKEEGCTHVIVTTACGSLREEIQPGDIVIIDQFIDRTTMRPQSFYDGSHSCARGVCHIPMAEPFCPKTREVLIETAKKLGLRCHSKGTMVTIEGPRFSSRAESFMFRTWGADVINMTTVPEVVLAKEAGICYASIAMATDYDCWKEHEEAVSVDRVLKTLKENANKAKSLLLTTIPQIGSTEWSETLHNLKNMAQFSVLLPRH
The series is described as follows: Inhibition of human MTAP as equilibrium dissociation constant.

The target in series [2] is T1, S-methyl-5'-thioadenosine phosphorylase. The series is described as follows: Inhibition of human MTAP as initial dissociation constant.
Series [3] shares this target. The series is described as follows: Inhibition of human MTAP as equilibrium dissociation constant; ND=no slow-onset phase.
Substrate in series [4]: CSC[C@H]1O[C@@H](n2cnc3c(N)ncnc32)[C@H](O)[C@@H]1O
The series is described as follows: Km for human MTAP.

Usually Ki stands for a dissociation constant, usually derived from enzyme kinetics or from competition with a known ligand. A high value points to a looser hold on the target. Regarding `NC1NC=Nc2c(CN3CC(O)C(CSc4ccc(F)cc4)C3)c[nH]c21` (stereo not drawn), the Ki was 0.16 nM in series [1] and 0.81 nM in series [2]. Consider `NC1NC=Nc2c(CN3CC(O)C(CSc4ccccc4)C3)c[nH]c21` (stereo not drawn), for which the Ki in series [1] came out at 0.17 nM; in series [2], 1.5 nM. Turning to `CCCSCC1CN(Cc2c[nH]c3c2NC=NC3N)CC1O` (stereo not drawn), the Ki in series [1] was determined as 0.12 nM; in series [2], 1.3 nM. With `NC1N=CNc2c(CN3CC(O)C(COCc4ccccc4)C3)c[nH]c21` (stereo not drawn), the inhibition constant (Ki) came out at 42 nM in series [1] and 85 nM in series [2]. As to `CCSCC1CN(Cc2c[nH]c3c2N=CNC3N)CC1O` (stereo not drawn), the inhibitory constant (Ki) in series [1] was determined as 0.034 nM; in series [2], 0.65 nM.

For `NC1NC=Nc2c(CN3CC(O)C(CSC4CCCCC4)C3)c[nH]c21` (stereo not drawn), the inhibition constant Ki in series [1] stood at 0.37 nM; in series [2] it was 0.76 nM. With `Nc1ncnc2c(CN3CC(O)C(CSCc4ccccc4)C3)n[nH]c12` (stereo not drawn), the Ki entry in series [3] is “No slow-onset phase observed”; in series [2] it was 55 nM. With `COCC1CN(Cc2c[nH]c3c2N=CNC3N)CC1O` (stereo not drawn), the Ki in series [1] came to 8 nM; in series [2], 14 nM. Turning to `CSCC1CN(Cc2c[nH]c3c(N)ncnc23)CC1O` (stereo not drawn), the Ki in series [1] amounted to 0.09 nM; in series [2], 1.7 nM.

Consider `NC1N=CNc2c(CN3CC(O)C(CSc4ccc(Cl)cc4)C3)c[nH]c21` (stereo not drawn), for which the Ki in series [1] was found to be 0.01 nM; in series [2], 0.36 nM. For `NC1NC=Nc2c(CN3CC(O)C(CSc4cccc(Cl)c4)C3)c[nH]c21` (stereo not drawn), the Ki came out at 0.27 nM in series [1] and 2 nM in series [2].

As for `Nc1[nH]cnc2c(CN3CC(O)C(CSCc4ccccc4)C3)cnc1-2` (stereo not drawn), the Ki in series [1] was found to be 0.7 nM; in series [2] it was 1.4 nM. `CCCCSCC1CN(Cc2c[nH]c3c2N=CNC3N)CC1O` (stereo not drawn): the Ki stood at 0.11 nM in series [1] and 0.28 nM in series [2]. Turning to `CC(C)SCC1CN(Cc2c[nH]c3c2NC=NC3N)CC1O` (stereo not drawn), the Ki in series [1] was 0.26 nM; in series [2] it was 0.9 nM. Regarding `CCCC1CN(Cc2c[nH]c3c2N=CNC3N)CC1O` (stereo not drawn), the inhibitory constant (Ki) in series [1] was determined as 3 nM; in series [2], 22 nM. As to `NC1N=CNc2c(CN3CC(O)C(CSc4ccncc4)C3)c[nH]c21` (stereo not drawn), the Ki in series [1] amounted to 0.16 nM; in series [2], 2 nM.

B1: S-methyl-5'-thioadenosine phosphorylase (Homo sapiens), Q13126 (protein)
chain: MASGTTTTAVKIGIIGGTGLDDPEILEGRTEKYVDTPFGKPSDALILGKIKNVDCVLLARHGRQHTIMPSKVNYQANIWALKEEGCTHVIVTTACGSLREEIQPGDIVIIDQFIDRTTMRPQSFYDGSHSCARGVCHIPMAEPFCPKTREVLIETAKKLGLRCHSKGTMVTIEGPRFSSRAESFMFRTWGADVINMTTVPEVVLAKEAGICYASIAMATDYDCWKEHEEAVSVDRVLKTLKENANKAKSLLLTTIPQIGSTEWSETLHNLKNMAQFSVLLPRH
As usually defined, the Km is the substrate concentration at which the rate is half of its maximum. With B1, the Km in series [4] was 5 µM.
